{"source": "paper PMC11677243", "about": "“Target protein identification in live cells and organisms with a non-diffusive proximity tagging system” (eLife, 2024)", "key": {"SRC [1]": {"molecular_target": "T1, SRC (Homo sapiens, UniProt P12931)", "T1 construct": "endogenous in cells; host or cells: HEK293T", "T1 sequence (P12931 2-536)": "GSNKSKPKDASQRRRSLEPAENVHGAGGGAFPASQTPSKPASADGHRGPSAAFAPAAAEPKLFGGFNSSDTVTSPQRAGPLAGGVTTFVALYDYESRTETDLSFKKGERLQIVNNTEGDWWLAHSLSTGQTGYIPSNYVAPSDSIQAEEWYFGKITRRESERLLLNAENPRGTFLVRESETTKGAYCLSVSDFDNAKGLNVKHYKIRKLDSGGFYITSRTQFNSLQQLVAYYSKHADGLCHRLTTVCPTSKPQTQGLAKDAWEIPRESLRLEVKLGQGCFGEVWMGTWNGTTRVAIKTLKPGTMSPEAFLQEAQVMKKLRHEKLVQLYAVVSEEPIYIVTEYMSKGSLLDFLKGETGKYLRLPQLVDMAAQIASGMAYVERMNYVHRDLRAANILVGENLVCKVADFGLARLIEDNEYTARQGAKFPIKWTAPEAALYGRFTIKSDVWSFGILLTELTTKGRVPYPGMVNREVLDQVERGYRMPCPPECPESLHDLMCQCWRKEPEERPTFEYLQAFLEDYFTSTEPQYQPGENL", "test": "In cellulo pupylation and pulldown assay of SRC in HEK293T cells", "format": "cell-based", "conditions": "250 nM DH5"}, "SRC [2]": {"molecular_target": "T2, SRC (Danio rerio, UniProt Q1JPZ3)", "T2 construct": "from tissue; host or cells: whole zebrafish embryos (AB strain) injected with the POST-IT plasmid", "test": "In vivo pupylation assay using zebrafish embryos", "conditions": "10 µM DH5, 24 hr, versus DMSO", "protocol": "To express POST-IT in early zebrafish embryos, 20 pg of pUbi-QFGal4-2A-3×Flag-POST-IT plasmid and 25 pg of transposase mRNA were injected into an embryo at the one-cell stage. The next day, GFP-positive and live embryos were selected, dechorionated with Pronase E (HY-114158, MedChemExpress, USA), and divided into two groups of approximately 1000 embryos each. One group was treated with DMSO and the other with 10 µM DH5 for 24 hr. The embryos were then collected, rinsed with PBS, and lysed in cell lysis buffer using a motorized plastic pestle. The resulting lysates were cleared by centrifugation, and protein concentrations were measured using the BCA assay. Samples were diluted to 2 mg/ml in 1 ml, mixed with 200 µl of prewashed streptavidin magnetic beads, and incubated at 4°C for 3 hr. The beads were washed five times with wash buffer A. Proteins were eluted with 2×SDS sample buffer and subsequently processed for western blot analysis."}, "HEK293T cells": {"test_system": "HEK293T cells", "test": "POST-IT^DH5 target-ID proteomics (LC-MS/MS, dasatinib competition)", "format": "cell-based, Homo sapiens", "conditions": "for FC(DH5/DASA) / log2(FC(DH5/DASA)): DH5 vs DH5 + dasatinib competition, imputed data", "protocol": "HEK293T cells were plated on two 100 mm dishes for each condition and co-transfected next day with 8 µg of pTol2-HA-Halo^8KR-PafA^S126A,K172R and 16 µg of pEF6a-SBP^K4R-sPup^K61R per dish. […] Cells were harvested in 1 ml of RIPA buffer, supplemented with a protease inhibitor cocktail for each dish. Following brief sonication, cell debris was removed by centrifugation at maximum speed for 10 min at 4°C. The supernatants were collected and mixed with 200 µl of streptavidin magnetic beads that had been prewashed with RIPA buffer. […] The eluates were combined and precipitated using trichloroacetic acid (TCA)/DOC. The resultant protein pellets were neutralized with 1 M Tris-HCl pH 8.8, and separated by Tricine-SDS-PAGE, and the CBB-stained bands were excised, with those smaller than 10 kD being removed, and processed for mass analysis.\nExcised gels were sliced into small pieces of ~1 mm^3, rinsed three times with Milli-Q water, decolorized with 50% acetonitrile and 100 mM NH4HCO3, and dehydrated with 100% acetonitrile. The dehydrated gel pieces were then reduced with 10 mM DTT in 50 mM NH4HCO3 at 56°C for 1 hr, carboxymethylated with 55 mM iodoacetamide in the dark at room temperature for 30 min, and digested with trypsin at a 1:50 enzyme to protein mass ratio at 37°C overnight. The peptides were collected, desalted with ZipTipC18 (ZTC18S096, Millipore, USA), dried under vacuum, and stored at –20°C until MS analysis. The resulting tryptic peptides were analyzed by LC-MS/MS at the Institute of Hydrobiology (Chinese Academy of Sciences, Wuhan, China). LC-MS/MS data acquisition was performed using a Q Exactive HF-X mass spectrometer coupled with an Easy-nLC 1200 system (Thermo Fisher Scientific, USA). The peptide mixtures were initially loaded onto a C18 trap column and subsequently separated on a C18 reverse-phase analytical HPLC column, Acclaim PepMap C18 column (75 µm ID ×250 mm, 2 µm particle size, 100 Å pore size, Thermo Fisher Scientific), employing a 100 min gradient program with mobile phase A (0.1% formic acid) and mobile phase B (80% acetonitrile, 0.1% formic acid). The gradient program was as follows: 0–65 min, 5–23% B; 65–85 min, 23–45% B; 85–86 min, 45–90% B; 87–90 min, 90% B; 90–90.1 min, 90–5% B; 90.1–100 min, 5% B, maintained at a constant flow rate of 300 nl/min. For data-dependent acquisition mode analysis, each scan cycle consisted of one full-scan mass spectrum (R = 60 K, AGC = 3e6, max IT = 20 ms, scan range = 350–1800 m/z) followed by 20 MS/MS events (R = 15 K, AGC = 2e5, max IT = 50 ms). The higher-energy collisional dissociation collision energy was set to 28 for ion fragmentation. The isolation window for precursor selection was set to 1.6 Da. The former target ion exclusion was set for 25 s.\nFor the identification of DH5 targets, raw MS data were analyzed using MaxQuant (version 2.1.0.0, Max Planck Institute of Biochemistry; [Cox and Mann, 2008]) with the Andromeda search engine. The MS data were aligned to the UniProt human protein database (Proteome ID: UP000005640). […] Variable modifications included oxidation (M), acetyl (Protein N-term), deamidation (NQ), and GGE (K). The false discovery rate for both peptide and protein identification was set at 1%. The ‘Match Between run’ option were enabled, with other settings at their default values. Missing values from identified proteins were filled through random imputation and further analyzed statistically to derive p values through unpaired SAM analysis using PANDA-view ([Chang et al., 2018]). Proteins commonly present under DMSO condition were considered nonspecific background interactions and excluded from further analysis."}, "SRC(251-536)": {"molecular_target": "SRC(251-536) (Homo sapiens, UniProt P12931)", "sequence (P12931 251-536)": "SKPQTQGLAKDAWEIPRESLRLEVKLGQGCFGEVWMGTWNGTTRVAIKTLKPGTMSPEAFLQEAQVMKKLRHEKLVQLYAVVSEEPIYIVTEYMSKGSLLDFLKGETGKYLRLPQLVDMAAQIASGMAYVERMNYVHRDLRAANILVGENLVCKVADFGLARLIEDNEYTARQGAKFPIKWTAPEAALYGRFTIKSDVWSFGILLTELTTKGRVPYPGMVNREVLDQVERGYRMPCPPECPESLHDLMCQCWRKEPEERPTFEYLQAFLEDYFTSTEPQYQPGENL", "test": "SRC kinase activity assay (Kinase-Lumi luminescent)"}, "SEPHS2": {"molecular_target": "T3, SEPHS2 (Homo sapiens, UniProt Q99611, U60C)", "T3 construct": "SBPII (N); 6xHis (pET28a backbone, Ni column purification); made in house; host or cells: E. coli BL21(DE3)", "T3 sequence (Q99611 with tags, fused parts or gaps U60C)": "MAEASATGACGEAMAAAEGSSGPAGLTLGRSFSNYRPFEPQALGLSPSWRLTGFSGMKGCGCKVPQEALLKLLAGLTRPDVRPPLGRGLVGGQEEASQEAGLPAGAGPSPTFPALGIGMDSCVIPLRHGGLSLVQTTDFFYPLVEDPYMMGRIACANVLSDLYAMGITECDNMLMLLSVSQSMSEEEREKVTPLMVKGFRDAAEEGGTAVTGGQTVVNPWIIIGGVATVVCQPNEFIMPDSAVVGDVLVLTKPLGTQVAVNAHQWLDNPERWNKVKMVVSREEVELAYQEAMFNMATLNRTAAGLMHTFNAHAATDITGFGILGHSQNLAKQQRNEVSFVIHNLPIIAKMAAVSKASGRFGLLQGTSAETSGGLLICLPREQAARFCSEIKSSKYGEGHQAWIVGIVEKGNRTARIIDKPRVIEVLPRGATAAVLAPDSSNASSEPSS", "test": "MST binding to Cy5-labeled SEPHS2", "conditions": "Cy5-labeled recombinant SEPHS2; n = 2, mean ± s.d."}}}
{"smiles": "Cc1nc(Nc2ncc(C(=O)Nc3c(C)cccc3Cl)s2)cc(N2CCN(CCOC(=O)NCCCCCNC(=O)OCCOCCOCCOC(=O)NCCOCCOCCCCCCCl)CC2)n1", "note": "[DH5, 23-Chloro-10-oxo-3,6,9,14,17-pentaoxa-11-azatricosyl(2-(4-(6-((5-((2-chloro-6-methylphenyl)carbamoyl)thiazol-2-yl)amino)-2-methylpyrimidin-4-yl)piperazin-1-yl)ethyl) pentane-1,5-diyldicarbamate]", "values": [{"measurement": "POST-IT pulldown of endogenous SRC", "setting": "SRC [1]", "result": "efficiently pull down endogenous SRC"}, {"measurement": "enrichment of endogenous SRC by POST-IT in live embryos", "setting": "SRC [2]", "result": "marked enrichment"}, {"measurement": "target proteins identified by POST-IT^DH5", "setting": "HEK293T cells; HEK293T, 250 nM DH5 with or without 2.5 µM dasatinib, 24 hr", "result": "eight known target proteins (FYN, RIPK2, MAPK14, ABL2, ABL1, CSK, LYN, and SRC) with significant enrichment"}, {"measurement": "FC(DH5/DASA)", "setting": "HEK293T cells; protein AAGAB", "result": 1.3259}, {"measurement": "log2(FC(DH5/DASA))", "setting": "HEK293T cells; protein AAGAB", "result": 0.4070}, {"measurement": "FC(DH5/DASA)", "setting": "HEK293T cells; protein AAK1", "result": 2.0012}, {"measurement": "log2(FC(DH5/DASA))", "setting": "HEK293T cells; protein AAK1", "result": 1.0009}, {"measurement": "FC(DH5/DASA)", "setting": "HEK293T cells; protein AAMDC", "result": 1.9368}, {"measurement": "log2(FC(DH5/DASA))", "setting": "HEK293T cells; protein AAMDC", "result": 0.9537}, {"measurement": "FC(DH5/DASA)", "setting": "HEK293T cells; protein AAR2", "result": 1.5565}, {"measurement": "log2(FC(DH5/DASA))", "setting": "HEK293T cells; protein AAR2", "result": 0.6383}, {"measurement": "FC(DH5/DASA)", "setting": "HEK293T cells; protein AARS", "result": 1.1988}, {"measurement": "log2(FC(DH5/DASA))", "setting": "HEK293T cells; protein AARS", "result": 0.2616}, {"measurement": "IC50", "setting": "SRC(251-536)", "result": 0.452, "unit": "µM"}, {"measurement": "Kd", "setting": "SEPHS2", "result": "11.6 ± 5.7", "unit": "µM"}]}
